Here are results for 32 compounds from PubChem BioAssay AID1035470 (Broad Institute, 2014).

This experiment has as its system E. coli WT-GFP vs G2058-humanized RFP, fluorescence, 24 h. Kind of experiment: growth inhibition of wild-type GFP E. coli versus G2058-humanized strain, dose response, G2058 mutant RFP vs wild-type GFP, cherry-pick, two tests (AID 1035470).
Setting [1] is: E. coli WT-GFP vs G2058-humanized RFP mixed culture, total growth OD600, 24 h.
The mark [2] stands for this setting: measured here: G2058 humanized mutant RFP growth.

The structures appear in SMILES notation. Results filed as inconclusive are left out. Active and inactive are the calls of the source.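 How the source made its calls: active means compound lowering the normal-ribosome reporter at least twice as much as the humanized-ribosome reporter, growth loss under a set limit; inconclusive means no clear call, values can overlap the other calls; inactive means the rest.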 Some results are limits rather than exact numbers.

Consider `CSc1ccccc1C(=O)NCCc1ccc(S(=O)(=O)N2CCCCC2)cc1`, for which the AC50 was > 100 µM (inactive).
`COc1cccc(NC(=O)CSc2nc3c(sc4ccccc43)c(=O)n2CCN(C)C)c1`: the AC50 is > 100 µM (inactive).
The same measure, in the same setting: the value for `CCOC(=O)Cc1nnc(NC(=O)CSc2nc3ccccc3[nH]2)s1` was > 100 µM (inactive); that for `FC(F)(F)c1ccc(Cl)c(-n2c(Cc3cccs3)n[nH]c2=S)c1` was > 100 µM (inactive); that for `Cn1cc(CN2CCCC(C(=O)Nc3cccc(-c4cc5ccccc5[nH]4)c3)C2)cn1` (stereo not drawn) was > 100 µM (inactive).
On the same count and under the same terms, with `O=C(Nc1cccc(Oc2ccc3c(c2)C(=O)NC3=O)c1)c1cccs1` the figure was > 100 µM (inactive).
Consider `COc1ccc(S(=O)(=O)N2CCOc3ccccc32)cc1`, for which the concentration at half-maximal activity (AC50) by setting is: under setting [1], above 100 µM; under setting [2], above 100 µM.
Turning to `COc1ccc(C(=O)Nc2ccc3nc(C)sc3c2)cc1OC`, the AC50 was > 100 µM (inactive).
Same read-out and setting: the value for `COc1ccc(-c2nc3ccc(Cl)cn3c2Cc2cccc(F)c2)cc1OC` was > 100 µM (inactive); that for `C[n+]1ccccc1/C=C/c1cc(Br)ccc1O` was > 100 µM (inactive).
For the compound `O=C(C[C@H]1CC[C@H](NC(=O)Nc2ccccc2F)[C@H](CO)O1)NCc1ccc(-c2ccccc2)cc1`, the AC50 is > 100 µM (inactive). The compound further showed an AC50 under setting [1] above 100 µM.
For `OCCN(Cc1ccccc1)Cc1ccc(F)c(F)c1`, the AC50 is > 100 µM (inactive).
`CSc1ccccc1OCc1cc(C(=O)N[C@H]2CCCCNC2=O)no1`: the AC50 is > 100 µM (inactive). The same compound returned a concentration at half-maximal activity (AC50) under setting [1] above 100 µM.
With `Cc1noc(C)c1COc1cccc(C(=O)N2CCc3ccccc32)c1`, the AC50 was > 100 µM (inactive).
On the same count and under the same terms, the value for `COc1ccc(-c2nc(NC(C)=O)sc2-c2ccccc2)cc1` was > 100 µM (inactive).
In turn, `C[C@@H]1CN([C@@H](C)CO)C(=O)CCCn2nncc2CO[C@H]1CN(C)C(=O)Nc1cccc(C(F)(F)F)c1` had an AC50 under setting [1] above 100 µM.
With `CN(C)CCCN(C(=O)CCOc1ccccc1)c1nc2c(F)cccc2s1`, the AC50 was > 100 µM (inactive).
`COc1ccc(CC(=O)NC(C)c2ccc3ccccc3c2)cc1` (stereo not drawn) showed a half-maximal activity concentration (AC50) under setting [2] of 5.4 µM.
The compound `COc1ccccc1N(C)S(=O)(=O)c1ccc(Cl)c(C(=O)NC2=NCCS2)c1` gave an AC50 under setting [2] of 46.3 µM.
On to `COc1cccc(CN(C)Cc2nc(Cc3ccccc3Cl)no2)c1`, for which the AC50 is > 100 µM (inactive). For the same compound, the concentration at half-maximal activity (AC50) under setting [1] was above 100 µM.
Regarding `COC(=O)c1ccc2nc(-c3ccco3)c(Cc3ccc(C)cc3)n2c1`, the AC50 under setting [1] was above 100 µM.
As for `Cc1cccc(Nc2nc(-c3ccc(F)cc3)cs2)n1`, the AC50 is > 100 µM (inactive). Under setting [1], this compound came in with a half-maximal activity concentration (AC50) above 100 µM.
Turning to `COC(=O)c1ccc(CN2CCCC(CO)(Cc3ccccc3F)C2)cc1` (stereo not drawn), the AC50 is > 100 µM (inactive). Moreover, the AC50 under setting [1] was above 100 µM.
Take `Cc1cccc(CSCC(=O)N2CCN(S(=O)(=O)c3ccccc3C#N)CC2)c1`: the AC50 is > 100 µM (inactive).
For `CCOC(=O)c1[nH]c2ccccc2c1NC(=O)c1ccc(Br)o1`, the AC50 was > 100 µM (inactive). The compound also yielded a half-maximal activity concentration (AC50) under setting [1] above 100 µM.
For `C=CCn1c(SCc2n[nH]c(=S)n2-c2ccccc2)nnc1-c1ccccc1` the same measures were > 100 µM (inactive) and above 100 µM.
For `Cc1ccc(Nc2cc(C(=O)NCCCN3CCOCC3)c3ccccc3n2)cc1C` the same measures were > 100 µM (inactive) and above 100 µM.
As to `O=C(O)c1ccccc1-c1ccccc1C(=O)Nc1ccc2c(c1)CCC2`, the AC50 was > 100 µM (inactive).
Consider `O=[N+]([O-])c1ccccc1Oc1ccc(Cl)c2cccnc12`, for which the AC50 is > 100 µM (inactive).
Same read-out and setting: the value for `O=C(c1ccccc1)C1Oc2ccccc2C2CC(c3cccs3)=NN12` (stereo not drawn) was > 100 µM (inactive).
Regarding `COC(=O)c1ccc(OCC(=O)c2ccccc2OC)cc1`, the AC50 was > 100 µM (inactive). This compound returned a concentration at half-maximal activity (AC50) under setting [1] above 100 µM.
The corresponding values for `Nc1ccccc1Sc1c[nH]c2ccccc12` are > 100 µM (inactive) and above 100 µM.

The AC50 is the concentration at which the activity in the assay is half-maximal.
